According to a melting point compilation (Tetko et al.; mined from patent text by program, amines drawn as free bases though some values may be those of a salt):

Point of comparison: COc1nc(OC)nc(N(C)C(=O)Oc2ccccc2)n1, melting point 90 °C. Against it:
- Cc1cc(CCl)nc(Nc2ccccc2)n1 — higher, 100 to 101 °C
- CN1N=C(c2cccc(F)c2)c2cc(Cl)ccc2CS1(=O)=O — higher, 172 to 173 °C
- Nc1cccc(C(=O)O)c1S — higher, 255 to 258 °C
- O=c1c(Cl)nc2cccnc2n1-c1ccc(Cl)cc1 — higher, > 300 °C
- CN(C)C(=S)ON1C(=O)C2CCCCC2C1=O (centres undefined) — higher, 124 to 126 °C
- Nc1ncc(Sc2ncccn2)s1 — higher, 175 to 177 °C
- CC(C)c1ccc(-n2nc(C(C)(C)C)cc2NC(=O)c2cncc3cc(Oc4cc(N)ncn4)ccc23)cc1 — higher, 131 to 133 °C
- Clc1ccc2oc(-c3ccc(N4CCCCC4)cc3)nc2c1 — higher, 162 to 164 °C
- COC1C(Oc2ccc(N)cc2)OC(CO)C(OC2OC(CO)C(O)C(OC)C2O)C1O (centres undefined) — higher, 105 °C
- C=CC(=O)OCCCCCCN(C)c1ccc(C=Cc2ccc(S(C)(=O)=O)cc2)cc1 — not separable, 88 to 90 °C
- NC(=O)OCCN1Cc2ccccc2CCO1 — higher, 110 to 111 °C
- Clc1nnccc1-c1c(-c2ccccc2)nn2ccccc12 — higher, 208 to 210 °C
- O=C(Nc1nc(C2CC2)no1)C(c1ccccc1)c1ccccc1 — higher, 163 °C
- Cc1nc2cc(NC(=O)c3ccco3)ccc2o1 — higher, 156 to 158 °C
- O=C(Nc1ccc(CN2C(=O)[C@H]3CCC[C@H]3N(C(=O)CN3C(=O)c4ccccc4C3=O)c3ccccc32)cc1)c1ccc(Cl)cc1 (relative stereo) — higher, 191 to 194 °C
- CCCn1c(C)c2c(c1C)C(=O)C(C)=C(C)C2=O — higher, 165 to 167 °C
- CC(C)C[C@H](NC(=O)OCc1ccccc1)C(=O)N[C@@H](C(C)C)[C@@H](O)c1c(-c2ccccc2)c1=O — not separable, 84 to 94 °C
- CN1CCC(=C2c3cc(CO)n(C)c3CCn3ccnc32)CC1 — higher, 214 °C
- N#Cc1cc(C#N)cc(Oc2ccnc(Oc3cc(Cl)cc(Cl)c3)n2)c1 — higher, 196 °C
- CCCCc1nn(Cc2ccccc2C(=O)O)c(=O)n1Cc1ccc(-c2ccccc2-c2nnn[nH]2)cc1 — higher, > 106 °C
- CC(=O)Oc1cc(-n2c(=O)cc(C(F)(F)F)n(C)c2=O)c(F)cc1Cl — higher, 99 to 101 °C
- Cc1nc(C)c(-c2[nH]nc3c2C(=O)c2c(NC(=O)NN4CCN(C)CC4)cccc2-3)s1 — higher, 278 °C
- O=C(O)COc1cc2c(=O)c3c(F)cccc3oc2cc1Cl — higher, 242 to 245 °C
- Cc1cc(-c2nnc3c4ccccc4c(OCc4cn(C)cn4)nn23)no1 — higher, 208 to 209 °C
- CCc1nc(CC(=O)O)no1 — lower, 58 to 60 °C
- COCCNC(=O)c1cccc(-c2cccc3cc(Cc4cccc(S(C)(=O)=O)c4)sc23)c1 — higher, 131 to 132 °C
- Cn1nc(C(F)(F)C(F)(F)F)c(C(F)(F)F)c1-n1cc(-c2ccc(Cl)c(C(=O)NC3CC3)c2)nn1 — higher, 150 to 152 °C
- COc1ccc(CNc2cc(OCc3ccccn3)ccc2C(=O)c2cc(OC)c(OC)c(OC)c2)cc1Cl — higher, 142 to 144 °C
- N#CC(CCN1CCC(C(=O)ON2C(=O)CCC2=O)(c2ccccc2)CC1)(c1ccccc1)c1ccccc1 — higher, 156 to 158 °C
- CC(C)(CC(O)(C(=O)Nc1ccc2c(c1Br)COC2=O)C(F)(F)F)c1ccccc1 (centres undefined) — higher, 187 to 194 °C
- COC(=O)C(S)CNC(=O)C(=O)NCC(S)C(=O)OC (centres undefined) — higher, 150 to 151 °C
- COc1cc(C(=O)c2c(-c3ccc(OCCN4CCCC4)cc3)sc3ccc(O)cc23)ccc1CN1CCCC1 — higher, 95 to 99 °C
- O=C(NCc1ccc(Cl)cc1)c1coc2ccc(C#CCO)cc2c1=O — higher, 182 to 183 °C
- CCOC(=O)CC1CCc2[nH]c3ccccc3c2C1 (centres undefined) — higher, 122 to 123 °C
- Oc1cccc2cc3ccccc3nc12 — higher, 115 °C
- Cc1noc(C)c1-c1cn(Cc2ccccc2)c(=O)c2cnccc12 — higher, 174 to 177 °C
- COc1ccc(S(=O)(=O)Nc2cccnc2Nc2ccc(OC)nc2)cc1 — higher, 159 to 160 °C
- Oc1ccc(-c2c3ccccc3cc3sc4ccccc4c23)cc1 — higher, 112 to 116 °C
- O=C(c1ccccc1)c1ccc(N2CCC(N3Cc4ccccc4C3=O)CC2)cc1 — higher, 173 to 175 °C
- O=C(O)c1cccc(C2Oc3ccccc3C(O)=C2Cc2ccccc2)c1 (centres undefined) — higher, 210 to 212 °C
- CCSC1(SCC)CCC2C3CCC4=CC(=O)C=CC4(C)C3C(O)CC21C (centres undefined) — higher, 163 to 165 °C
- COc1cc(OC)c2c(=O)c(OCCCOc3ccc(C(C)=C4SC(=O)NC4=O)cc3)c(-c3ccc(OC)c(OC)c3)oc2c1 — higher, 198 to 200 °C
- CCOC(=O)c1cc(O)c(-c2ccccc2)c([N+](=O)[O-])c1 — higher, 128 to 130 °C
- COc1ccccc1NCCN1CCC(C(=O)c2ccc(F)cc2)CC1 — higher, 116 to 120 °C
- CN1CCC(c2c[nH]c3ccc(NC(=O)c4ccncc4)nc23)CC1 — higher, 126 to 128 °C
- CN(C)CCC1CCc2cc(OCc3ccc(O)cc3)ccc2C1 (centres undefined) — higher, 132 to 135 °C
- Fc1ccccc1COc1cccnc1NC(=S)Nc1ccc(Cl)cc1 — higher, 141 °C
- O=C(CO)Cc1ccc2ccccc2c1 — higher, 109 to 110 °C
